Reference: PMC3762585 (Chemical & pharmaceutical bulletin, 2012)
Like-named read-outs stand apart in the source and are kept apart here.

Columns and labels:
[1] = system: JMAR, MDA-1986, B16F10, SKMEL-28 and MRC-5 cells; assay: MTS viability; format: cell-based; settings: for anti-proliferative activity (cytotoxic effect): tested with a concentration of 20 μM, all five cell lines; for IC50: read-out: IC50 values, range over the cells tested
in vitro = settings: human
B16F10 [2] = assay: MTS viability; settings: Mus musculus, B16-F10, read-out: Cytotoxicity IC50 B16F10
SKMEL-28 [3] = assay: MTS viability; settings: Homo sapiens, SK-MEL-28, read-out: Cytotoxicity IC50 SKMEL-28
MDA-1986 [4] = assay: MTS viability; settings: Homo sapiens, MDA1986, read-out: Cytotoxicity IC50 MDA-1986
JMAR [5] = assay: MTS viability; settings: Homo sapiens, read-out: Cytotoxicity IC50 JMAR
B16F10 [6] = system: B16F10
SKMEL-28 [7] = system: SKMEL-28
JMAR [8] = system: JMAR
MDA-1986 [9] = system: MDA-1986

19-hydroxy viscosalactone B [Withalongolide P 2]
anti-proliferative activity (cytotoxic effect) [1]: inactive

CC1=C(CO)C(=O)O[C@@H]([C@@H](C)[C@H]2CC[C@H]3[C@@H]4C[C@H]5O[C@]56[C@@H](O)C=CC(=O)[C@]6(C)[C@H]4CC[C@]23C)C1 [Withaferin A 6, withaferin A]
IC50 [1]: 0.15 to 12.7 µM
IC50 (in vitro): 0.32 ± 0.06 µM
IC50 (B16F10 [2]): 0.27 ± 0.04 µM
IC50 (SKMEL-28 [3]): 3.5 ± 0.15 µM
IC50 (MDA-1986 [4]): 0.86 ± 0.25 µM

CC1=C(C)C(=O)O[C@@H]([C@@H](C)[C@H]2CC[C@H]3[C@@H]4C[C@H]5O[C@]56[C@@H](O)C=CC(=O)[C@]6(CO)[C@H]4CC[C@]23C)C1 [Withalongolide B 5, withalongolide B]
IC50 [1]: 0.15 to 12.7 µM
IC50 (in vitro): 0.38 ± 0.03 µM
IC50 (B16F10 [2]): 0.26 ± 0.07 µM
IC50 (SKMEL-28 [3]): 3.3 ± 0.48 µM
IC50 (JMAR [5]): 0.25 ± 0.14 µM
IC50 (MDA-1986 [4]): 1.7 ± 0.08 µM

CC1=C(CO)C(=O)O[C@@H]([C@@H](C)[C@H]2CC[C@H]3[C@@H]4C[C@H]5O[C@]56[C@@H](O)[C@@H](O)CC(=O)[C@]6(C)[C@H]4CC[C@]23C)C1 [viscosalactone B 3, viscosalactone B]
anti-proliferative activity (cytotoxic effect) [1]: inactive
IC50 (in vitro): > 20 µM
IC50 (B16F10 [2]): > 20 µM
IC50 (SKMEL-28 [3]): > 20 µM
IC50 (JMAR [5]): > 20 µM
IC50 (MDA-1986 [4]): > 20 µM

Withalongolide O 4,7-Diacetate [Withalongolide O 4,7-diacetate 1a]
IC50 (B16F10 [6]): 0.69 ± 0.14 µM
IC50 (SKMEL-28 [7]): 0.18 ± 0.03 µM
IC50 (JMAR [8]): 0.83 ± 0.14 µM
IC50 (MDA-1986 [9]): 0.54 ± 0.07 µM
IC50 (MRC-5): 0.53 ± 0.12 µM
